# Results published in the NIST ThermoML archive (doi:10.1016/j.fluid.2014.10.043).
# Numbers after ± are expanded uncertainties.
# How the values were obtained:
# [1] = 293.2 K; 101.33 kPa; Liquid; Vibrating tube method
# [2] = refractive index (Na D-line) (dimensionless); settings: 293.2 K; 101.33 kPa; Liquid; Standard Abbe refractometry
Structure (SMILES),mass density [1],refractive index [2]
CC(=O)c1ccccc1 [acetophenone],1027.9 ± 0.93 kg/m3,1.5361 ± 0.0006
CCCC(=O)O [butanoic acid],957.8 ± 0.37 kg/m3,1.3965 ± 0.0005
"CCOC(=O)CC(=O)OCC [diethyl 1,3-propanedioate]",1055.25 ± 0.98 kg/m3,1.4135 ± 0.0006
CCCC(=O)OCC [ethyl butanoate],879.18 ± 0.73 kg/m3,1.3918 ± 0.0006
CCCCCCCCC(=O)OCC [ethyl nonanoate],866.3 ± 0.72 kg/m3,1.4226 ± 0.0006
CCCCC(=O)OCC [ethyl pentanoate],877.15 ± 0.36 kg/m3,1.4125 ± 0.0005
CCCCCCCCO [octan-1-ol],825.95 ± 0.35 kg/m3,1.428 ± 0.0005
CCCCN(CCCC)CCCC [tributylamine],782.3 ± 0.61 kg/m3,1.4275 ± 0.0006
